Measurements published in patent EP0299457A2, “Novel benzothiophenes having antiallergic activity and both novel and other selected benzothiophenes having activity for treating acute respiratory distress syndrome” (WARNER-LAMBERT COMPANY, priority 1987, dated 1989).
Like-named read-outs stand apart in the source and are kept apart here.

Key:
[1] = test system: human neutrophils; experiment: Inhibition of superoxide (O₂⁻) generation from neutrophils; assay type: cell-based; conditions: Neutrophil
Text: (§1) The one assay provides IC₅₀'s for the inhibition of superoxide generation. DeChatelet, L. R., Shirley, P. S. and Johnson, R. B. 1976. Effect of phorbol myristate acetate on the oxidative metabolism of human polymorphonuclear leukocytes. Blood 47:545-554. The other assay is a generally recognized in vivo assay to show activity useful for treating ARDS. The in vivo assay is described in J. Clin. Invest., Vol. 69, May 1982, pp 1126-1135.
The activity for each of these compounds as numbered above is expressed as IC₅₀'s for the inhibition of superoxide generation and is shown in the following Table A: TABLE A
Further, activity for compounds of examples noted in the following Table A₁ likewise show IC₅₀'s for the inhibition of superoxide generation. TABLE A1

[2] = test system: CVF Induced Lung Injury in Rats; experiment: Inhibition of cobra venom factor (CVF) induced lung injury in rats (in vivo ARDS assay); conditions: for Lung Injury (x ± SEM): saline control 0.20 ± 0.01, CVF alone 1.45 ± 0.19
Text: as §1
Accordingly, the compounds of the Formula II are now found to be particularly useful for treating ARDS shown by the inhibition of cobra venom factor (CVF) induced lung injury in rats using the Compound No. 1 above in the in vivo assay shown as follows in Table B: TABLE B

[3] = Table A, read-out: IC₅₀ (µM) Inhibition of O₂⁻ generation from neutrophils
[4] = Table A1, read-out: IC₅₀ (µM) Inhibition of O₂⁻ generation from neutrophils
[5] = given intravenously (20 mg/kg) 10 minutes before intravenous injection of CVF
[6] = injected intraperitoneally (20 mg/kg) 20 minutes before CVF

| Compound | IC50 [1, 3] | IC50 [1, 4] | also measured |
| --- | --- | --- | --- |
| COc1ccc2sc(C(=O)Nc3nnn[nH]3)c(SC(C)C)c2c1 [compound 3, 5-Methoxy-3-[(1-methylethyl)thio-N-1Htetrazol-5-yl]-benzo[b]thiophene-2-carboxamide] | 23 µM |  |  |
| COc1ccc2sc(C(=O)Nc3nnn[nH]3)c(Oc3ccccc3)c2c1 [compound 6, 5-Methoxy-3-phenoxy-N-1H-tetrazol-5-yl-benzo[b]thiophene-2-carboxamide] | 10 µM |  |  |
| COc1ccc2c(OC(C)C)c(C(=O)Nc3nnn[nH]3)sc2c1 [compound 2, 6-Methoxy-3-(1-methylethoxy)-N-1H-tetrazol-5-yl-benzo[b]thiophene-2-carboxamide] | 37 µM |  |  |
| COc1ccc2c(Oc3ccccc3)c(C(=O)Nc3nnn[nH]3)sc2c1 [Example C21D, 6-Methoxy-3-phenoxy-N-1H-tetrazol-5-yl-benzo[b]thiophene-2-carboxamide] |  | > 100 µM |  |
| COc1ccc2sc(C(=O)Nc3nnn[nH]3)c(OC(C)C)c2c1 [Compound No. 1, 5-Methoxy-3-(1-methylethoxy)-N-1H-tetrazol-5-yl-benzo[b]thiophene-2-carboxamide] | 19 µM |  | Protection % Inhibition of Injury [2, 5]: 76%; Lung Injury (x ± SEM) [2, 5]: 0.48 ± 0.08; Protection % Inhibition of Injury [2, 6]: 58%; Lung Injury (x ± SEM) [2, 6]: 0.73 ± 0.06 |
| COc1ccc2sc(C(=O)Nc3nnn[nH]3)c(OCc3ccccc3)c2c1 [compound 5, 3-Benzyloxy-5-methoxy-N-1H-tetrazol-5-yl-benzo[b]thiophene-2-carboxamide] | 23 µM |  |  |
| COc1cc2sc(C(=O)Nc3nnn[nH]3)c(OCc3ccccc3)c2cc1OC [Example C21A, 5,6-Dimethoxy-3-(phenylmethoxy)-N-1H-tetrazol-5-yl-benzo[b]thiophene-2-carboxamide] |  | 40 µM |  |
| CC(C)Oc1c(C(=O)Nc2nnn[nH]2)sc2ccc(O)cc12 [Example C20A, 3-(1-Methylethoxy)-5-hydroxy-N-1H-tetrazol-5-yl-benzo[b]-thiophene-2-carboxamide] |  | 48 µM |  |
| COc1ccc2c(OC(C)C)c(C(=O)Nc3nnn[nH]3)oc2c1 [compound 4, 6-Methoxy-3-(1-methylethoxy)-N-1H-tetrazol-5-yl-2-benzofurancarboxamide] | 75 µM |  |  |
| COc1cc2sc(C(=O)Nc3nnn[nH]3)c(Oc3ccccc3)c2cc1OC [Example C21] |  | 6 µM |  |
